Experimental data reported in patent publication US9920035B2, “Heterocyclic compounds, medicaments containing said compounds, use thereof and processes for the preparation thereof” (Boehringer Ingelheim International GmbH, priority 2011, dated 2018).

Molecular target: T1, epithelial sodium channel (ENaC) (Mus musculus, UniProt Q61180+Q9WU38+Q9WU39)
T1 construct: Mouse kidney M-1 cells were cultivated in DMEM containing 5% FCS and 5 μM dexamethasone; endogenous in cells; host or cells: mouse kidney M-1 cells
T1 sequence (Q61180 1-699): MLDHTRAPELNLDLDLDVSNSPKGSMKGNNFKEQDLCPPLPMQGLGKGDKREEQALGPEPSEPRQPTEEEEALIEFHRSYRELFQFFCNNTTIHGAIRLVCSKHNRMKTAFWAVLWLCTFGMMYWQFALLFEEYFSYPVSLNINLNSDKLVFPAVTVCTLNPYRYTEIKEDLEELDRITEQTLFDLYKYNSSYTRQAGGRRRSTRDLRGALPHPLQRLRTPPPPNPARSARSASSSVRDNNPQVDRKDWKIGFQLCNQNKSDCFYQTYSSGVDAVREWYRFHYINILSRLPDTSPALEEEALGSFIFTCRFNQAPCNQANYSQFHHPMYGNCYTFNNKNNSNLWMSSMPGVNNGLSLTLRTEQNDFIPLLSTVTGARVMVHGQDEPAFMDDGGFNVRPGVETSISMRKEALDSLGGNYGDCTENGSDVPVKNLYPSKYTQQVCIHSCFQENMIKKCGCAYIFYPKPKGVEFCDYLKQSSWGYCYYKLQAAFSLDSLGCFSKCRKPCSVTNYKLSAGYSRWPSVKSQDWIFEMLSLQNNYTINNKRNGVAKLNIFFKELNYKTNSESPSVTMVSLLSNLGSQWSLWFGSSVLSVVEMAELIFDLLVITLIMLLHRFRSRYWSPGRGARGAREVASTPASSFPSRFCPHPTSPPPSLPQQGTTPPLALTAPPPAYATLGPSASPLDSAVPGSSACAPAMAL
T1 sequence (Q9WU38 1-638): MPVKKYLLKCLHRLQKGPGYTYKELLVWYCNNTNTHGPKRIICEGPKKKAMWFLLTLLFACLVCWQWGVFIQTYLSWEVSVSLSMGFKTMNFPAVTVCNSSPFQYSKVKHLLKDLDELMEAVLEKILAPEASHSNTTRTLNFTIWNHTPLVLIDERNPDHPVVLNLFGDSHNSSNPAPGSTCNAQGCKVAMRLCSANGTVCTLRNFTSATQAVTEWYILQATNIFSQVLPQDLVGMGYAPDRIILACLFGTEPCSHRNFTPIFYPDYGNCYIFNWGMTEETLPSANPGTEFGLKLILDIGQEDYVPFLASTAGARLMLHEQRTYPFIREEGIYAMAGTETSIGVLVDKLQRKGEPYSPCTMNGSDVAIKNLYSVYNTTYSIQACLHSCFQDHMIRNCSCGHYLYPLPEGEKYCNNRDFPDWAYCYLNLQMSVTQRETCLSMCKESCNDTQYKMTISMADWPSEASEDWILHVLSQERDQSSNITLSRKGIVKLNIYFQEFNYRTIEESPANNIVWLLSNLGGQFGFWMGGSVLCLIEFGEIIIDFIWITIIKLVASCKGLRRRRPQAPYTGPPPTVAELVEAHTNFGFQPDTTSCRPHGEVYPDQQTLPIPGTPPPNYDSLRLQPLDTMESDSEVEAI
T1 sequence (Q9WU39 1-655): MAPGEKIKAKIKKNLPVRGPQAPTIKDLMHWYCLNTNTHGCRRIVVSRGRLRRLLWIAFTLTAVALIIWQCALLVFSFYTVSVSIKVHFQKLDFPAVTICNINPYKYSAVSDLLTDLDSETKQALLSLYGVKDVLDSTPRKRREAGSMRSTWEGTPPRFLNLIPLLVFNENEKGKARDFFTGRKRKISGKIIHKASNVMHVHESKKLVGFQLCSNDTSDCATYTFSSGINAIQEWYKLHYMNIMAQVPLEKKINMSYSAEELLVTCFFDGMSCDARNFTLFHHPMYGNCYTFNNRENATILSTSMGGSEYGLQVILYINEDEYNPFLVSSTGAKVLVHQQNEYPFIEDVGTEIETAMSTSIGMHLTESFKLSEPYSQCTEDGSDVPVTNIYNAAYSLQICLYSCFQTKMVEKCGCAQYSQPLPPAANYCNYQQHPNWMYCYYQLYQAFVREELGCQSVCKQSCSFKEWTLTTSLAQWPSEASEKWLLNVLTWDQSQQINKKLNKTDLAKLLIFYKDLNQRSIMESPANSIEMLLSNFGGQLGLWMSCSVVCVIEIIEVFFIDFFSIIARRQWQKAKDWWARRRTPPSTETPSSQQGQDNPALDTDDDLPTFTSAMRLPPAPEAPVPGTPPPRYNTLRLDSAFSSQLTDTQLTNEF
Test: Ussing chamber: inhibition of amiloride sensitive short circuit current (I_sc) in M-1 cells
Assay type: cell-based
Conditions: Mouse kidney M-1 cells on transwell filters, Ussing chamber at 37° C., compound added to the apical solution
Procedure: Mouse kidney M-1 cells were cultivated in DMEM containing 5% FCS and 5 μM dexamethasone for 10 to 12 days on polyester transwell filters. Filters were inserted into a teflon-coated well-plate which fit into the in-house ussing chamber system. Prior to measurement the medium of M-1 cells was replaced with Caco-2 transport buffer (Invitrogen, Germany). During measurements, the Ussing chamber temperature was kept at 37° C. Short circuit currents (I_sc) were measured in the voltage-clamp mode using an in-house built amplifier (Boehringer Ingelheim, Biberach) with the software package Lab View for data acquisition and analysis. The transepithelial electrical resistance (TEER) was determined by the application of voltage steps of ±5 mV every 5 sec. Compounds were administered at a final concentration of 3 μM or at increasing concentrations (1-3-10 μM) to the apical solution. At the end of each experiment the amiloride sensitive I_SC was measured by adding 3 μM amiloride to the apical compartment. Results are expressed as inhibition in percent of the amiloride effect or as IC50. Results are listed in tables 1 to 5 and further examples listed above.

Compound	IC50
COC(=O)CCNC(=O)N1CCC(CCc2ccccc2)(CNC(N)=NC(=O)c2nc(Cl)c(N)nc2N)CC1 [Example 1.19]	0.024 µM
COC(=O)CCC(=O)N1CCC(CNC(N)=NC(=O)c2nc(Cl)c(N)nc2N)(Cc2ccccc2)CC1 [Example 1.20]	0.075 µM
CC(C)(C)OC(=O)NCCCN1CCC(CCc2ccccc2)(CNC(N)=NC(=O)c2nc(Cl)c(N)nc2N)CC1 [Example 1.28]	0.036 µM
COC(=O)c1ccc(CCC2(CNC(N)=NC(=O)c3nc(Cl)c(N)nc3N)CCN(C(=O)OC(C)(C)C)CC2)cc1 [Example 1.17]	0.056 µM
C[N+]1(C)CCC(NC(=O)N2CCC(CCc3ccccc3)(CNC(N)=NC(=O)c3nc(Cl)c(N)nc3N)CC2)CC1 [Example 5.5]	0.052 µM
COC(=O)CCC(=O)N1CCC(CCc2ccccc2)(CN/C(N)=N/C(=O)c2nc(Br)c(N)nc2N)CC1 [Example 10, 4-{4-[N′-(3,5-Diamino-6-bromo-pyrazine-2-carbonyl)-guanidinomethyl]-4-phenethyl-piperidin-1-yl}-4-oxo-butyric acid methyl ester]	0.032 µM
CC(C)NC(=O)N1CCC(CNC(N)=NC(=O)c2nc(Cl)c(N)nc2N)(c2ccc3c(c2)OCO3)CC1 [Example 1.44]	0.046 µM
CN1CCN(C(=O)N2CCC(CCc3ccccc3)(CN/C(N)=N/C(=O)c3nc(Cl)c(N)nc3N)CC2)CC1 [Example 1.53]	0.014 µM
CC(C)NC(=O)N1CCC(CCc2ccccc2)(CNC(N)=NC(=O)c2nc(Cl)c(N)nc2N)CC1 [Example 1.2]	0.008 µM
N/C(=N\C(=O)c1nc(Cl)c(N)nc1N)NCC1(CCc2ccccc2)CCN(C(=O)NCCCCCCNC(=O)N2CCC(CCc3ccccc3)(CN/C(N)=N/C(=O)c3nc(Cl)c(N)nc3N)CC2)CC1 [Example 6.1]	0.097 µM
NCCCCC(=O)N1CCC(CNC(N)=NC(=O)c2nc(Cl)c(N)nc2N)(Cc2ccccc2)CC1 [Example 2.8]	0.061 µM
CC(C)(C)OC(=O)NCC(=O)N1CCC(CCc2ccccc2)(CNC(N)=NC(=O)c2nc(Cl)c(N)nc2N)CC1 [Example 1.25]	0.018 µM
CC(C)(C)OC(=O)NCCC(=O)N1CCC(CCc2ccccc2)(CNC(N)=NC(=O)c2nc(Cl)c(N)nc2N)CC1 [Example 1.22]	0.037 µM
CC(C)N1CCC(CCc2ccccc2)(CNC(N)=NC(=O)c2nc(Cl)c(N)nc2N)CC1 [Example 1.7]	0.063 µM
N=C(N)NCCC(=O)N1CCC(CCc2ccccc2)(CNC(N)=NC(=O)c2nc(Cl)c(N)nc2N)CC1 [Example 4.1]	0.012 µM
N/C(=N\C(=O)c1nc(Br)c(N)nc1N)NCC1(CCc2ccccc2)CCN(C(=O)CCC(=O)O)CC1 [Example 11, 4-{4-[N′-(3,5-Diamino-6-bromo-pyrazine-2-carbonyl)-guanidinomethyl]-4-phenethyl-piperidin-1-yl}-4-oxo-butyric acid]	0.502 µM
C[N+](C)(C)CCCC(=O)N1CCC(CCc2ccccc2)(CNC(N)=NC(=O)c2nc(Cl)c(N)nc2N)CC1 [Example 1.50]	0.015 µM
NCCNC(=O)N1CCC(CCc2ccccc2)(CNC(N)=NC(=O)c2nc(Cl)c(N)nc2N)CC1 [Example 2.7]	0.016 µM
COC(=O)CCC(=O)N1CCC(CCc2ccccc2)(CNC(N)=NC(=O)c2nc(Cl)c(N)nc2N)CC1 [Example 1.14]	0.02 µM
NCCCNC(=O)N1CCC(CNC(N)=NC(=O)c2nc(Cl)c(N)nc2N)(Cc2ccccc2)CC1 [Example 2.13]	0.025 µM
COC(=O)CN1CCC(CCc2ccccc2)(CNC(N)=NC(=O)c2nc(Cl)c(N)nc2N)CC1 [Example 1.16, {4-[N′-(3,5-diamino-6-chloro-pyrazine-2-carbonyl)guanidinomethyl]-4-phenethyl-piperidin-1-yl}-acetic acid methyl ester]	0.002 µM
COC(=O)c1ccc(CCC2(CNC(N)=NC(=O)c3nc(Cl)c(N)nc3N)CCN(C(=O)NCC[N+](C)(C)C)CC2)cc1 [Example 5.2]	0.074 µM
